One block for each compound: values may come before it.
How the values were obtained:
rat intestine = conditions: dietary, rat intestine in vivo; cited from earlier work
Giardia cells = conditions: after 2 h, cited from earlier work
[1] = Distribution of ganglioside to the intestine (discussion)
CaCo-2 cells [2] = assay: Apical and basolateral GD3 uptake, retention, transfer and metabolism in CaCo-2 cell monolayers on trans-well plates; assay type: in vitro ADME, human
Description: Polarized, differentiated monolayers of CaCo-2 cells grown on trans-well plates were used as a model to study apical and basolateral GD3 uptake. CaCo-2 cells were seeded at a density of 2.5×10^7 cells/ml on 0.4 μm pore inserts in 24 well trans-well plates (Corning Inc., Acton, Mass.). The apical (upper) and basolateral (lower) compartments contained 100 μl and 600 μl of EMEM-10, respectively. CaCo-2 cells were grown to confluence and were differentiated twenty days prior to delivering gangliosides. After 20 days, CaCo-2 cells were differentiated and polarized with intact tight junctions, as confirmed by alkaline phosphatase activity and trans-epithelial resistance measurements (data not shown). On day 21, CaCo-2 cells were transferred into Hank's MEM-4, a low serum, low calcium medium containing no antibiotics to limit serum and calcium interference with ganglioside uptake and antibiotic effects on tight junction permeability. Serum present in the media aided in GD3 solubilization and micelle formation during sonication. CaCo-2 cells were incubated under standard conditions in the absence (control, MEM-4 alone) or presence of purified ganglioside GD3 in MEM-4 for 6, 24 and 48 h at a concentration of 5 or 10 μg/ml. The time frame for exposing human intestine CaCo-2 cells to ganglioside GD3 was chosen to be 6-48 h as previous work on ganglioside GM1 uptake by cultured cells predicts slow and incomplete ganglioside absorption from the apical side. […] The ganglioside treated cells received GD3 on either the BBM (apical) side or the BLM side of CaCo-2 cell monolayers. GD3 delivery on the apical and BLM side of CaCo-2 cells was used as an in vitro model for enteral and intravenous nutrient delivery, respectively. After GD3 incubation, apical and BLM supernatants were collected and cells were washed with PBS and Tris buffer containing EDTA. CaCo-2 cells from each trans-well insert were trypsinized, pooled together in Tris-mannitol buffer and sonicated to form cell lysates. Cell lysates were saved for protein and ganglioside analysis.
Total and individual gangliosides were measured with a colorimetric sialic acid assay as ganglioside bound N-acetyl neuraminic acid (GG-NANA). An aliquot of purified ganglioside sample was dried under N2 gas and dissolved with 0.5 ml of ddH20 and 0.5 ml of resorcinol-HCl in screw-capped Teflon-lined tubes. The purple-blue color developed by reacting resorcinol reagent with ganglioside sialic acid at 160° C. for 8 min was extracted into butylacetate/butanol (85:15, v/v) solvent. Optical density was read by a spectrophotometer at 580 nm. For quantitative analysis, N-acetyl neuraminic acid (also known as sialic acid) was used as a standard.
The following equations were used to calculate the percentage and amount of ganglioside GD3 taken up, retained, transferred and metabolized by human intestinal CaCo-2 cells following brush border membrane or basolateral membrane GD3 delivery. For all calculations the values obtained from the control were subtracted off the test groups to correct for small levels of ganglioside present in the serum and cells. In Equation 1, the % uptake=[(amount delivered-amount remaining)*100%] divided by the amount delivered. In Equation 2, the % retention=[amount cell*100%] divided by the amount uptake. In Equation 3, the % transfer=[amount receiving compartment*100%] is divided by the amount uptake. In Equation 4, the % metabolism=[amount uptake−amount retained−amount transferred*100%] divided by the amount uptake.
Sample size determination for a one tailed comparison at 80% power to detect a 4-5 fold increase in GM1 levels in skin fibroblasts (0.2 nmol/mg protein to 0.9 nmol/mg protein, P<0.05) requires a sample size of 3. All data are expressed as the mean±the standard error of the mean for a sample size of n=4 (4 different cell passages) for intestine cell sensitivity experiments and n=3-4 (3-4 different cell passages) for ganglioside GD3 absorption experiments. […]

CaCo-2 cells [3] = assay: Lactate dehydrogenase (LDH) release cytotoxicity assay; assay type: cell-based, human
Description: The human colon cancer cell line, CaCo-2, was obtained from American Type Culture Collection (Manassas, Va.) and was grown (passage 50-65) under standard incubator conditions (humidified atmosphere, 5% CO2, 37° C.) as adherent monolayer cultures in T-flasks containing Earle's minimum essential medium (EMEM). The cell culture growth medium (pH 7.2) was supplemented with 10% (v/v) fetal bovine serum, 1% (v/v) antibiotic/antimycotic, 26 mM sodium bicarbonate, 10 mM HEPES and 1 mM pyruvic acid. Media was changed every 2-3 days and cell density and viability was assessed with a hemocytometer using the trypan blue dye exclusion method.
Human intestine CaCo-2 cells were seeded at a density of 400,000 cells/ml on a 24 well plate. At confluence, cells were switched into EMEM-4 (4% FBS) and treated with a range of GD3 concentrations (0-64 μg/ml) similar or higher than the amount in human milk on the apical side for 24 h under standard incubator conditions. […] In brief, cell lysates and supernatants were incubated with an enzyme/substrate solution for 30 min at room temperature and the absorbance of colored formazan product was measured at 490 nm with a microtiter plate reader (Molecular Devices, Sunnyvale, Calif.). Absorbance background reading under kit conditions was less than 0.075. Data were expressed as percentage LDH release from cells. […]

Compound: sphingomyelin
Apical uptake efficiency (rat intestine): 22-43%

Compound: CC(C)CCC[C@@H](C)[C@H]1CC[C@H]2[C@@H]3CC=C4C[C@@H](O)CC[C@]4(C)[C@H]3CC[C@]12C [cholesterol]
Apical uptake efficiency (rat intestine): 50%

Compound: II^3 NeuAc-GgOse4Cer [GM1]
Ganglioside incorporated (Giardia cells): 2.4 µg
Maximal uptake efficiency (Giardia cells; same amount of ganglioside): 10%
Fraction that could have been distributed to the intestine [1]: at most 6%

Apical GD3 uptake efficiency, maximum (CaCo-2 cells [2]; 10 μg/ml apical, after 24 h): 73%
GD3 uptake, basolateral compared to apical delivery (CaCo-2 cells [2]; 10 μg/ml, 6, 24 and 48 h): faster and more efficient
Time course of GD3 uptake (CaCo-2 cells [2]; 10 μg/ml, 6, 24 and 48 h at 37° C.): rapid and linear for the first 6 h
Amount of GD3 taken up from the basolateral membrane side when concentration doubled (CaCo-2 cells [2]; 5 or 10 μg/ml, 6 h at 37° C.): twice as high
Percent of GD3 taken up that was metabolized (CaCo-2 cells [2]; after 6 h apical exposure, 10 μg/ml): 96%
Drop of the percentage GD3 metabolized (CaCo-2 cells [2]; after 24 h apical exposure): 32%
GD3 incorporated (CaCo-2 cells [2]; apical delivery of 24 μg, after 24 h): 18.5 µg
Fate of basolateral membrane GD3 uptake (CaCo-2 cells [2]; following 24 h exposure, 10 μg/ml): completely metabolized
Compound: II^3 (NeuAc)2-LacCer [GD3]
LDH release from cells (CaCo-2 cells [3]; 64 μg/ml, 24 h): significant release of LDH
Concentration at which toxicity to enterocytes begins (CaCo-2 cells [3]; after 24 h exposure): greater than 32 μg/ml

Fraction that could have been distributed to the intestine [1]: ≤ 47.4%
Compound: II^3 NeuAc-LacCer [GM3]
